Results: US10717997B2, “Method for storing gaseous hydrogen through producing methanoate (formate)” (Johann Wolfgang Goethe-Universität, priority 2013, dated 2020)
Entries after “also recorded” stand apart in the source; their conditions may differ.

Tested on: cell suspensions of A. woodii
Test: Formate production by whole cell catalysis, cell suspensions of A. woodii converting H2 and CO2
Assay type: cell-based, Acetobacterium woodii
Conditions: ETH2120 30 μM
Method: Cell suspensions of A. woodii (1 mg/ml) were incubated using a gas phase of 0.8×10^5 Pa H2 and 0.2×10^5 Pa CO2 (1A). Adding the Na^+ ionophore ETH2120 (30 μM) gives rise to the production of up to 8 mM formate and the production of acetate stopped (1B). For experiments with whole cells, the inventors used cell suspensions of A. woodii for the conversion of H2 and CO2 to formate. The energy metabolism of A. woodii is strictly sodium ion dependent, and the ATP synthase uses Na^+ as the coupling ion. Thus, by omitting sodium ions in the buffer or by adding sodium ionophores (the inventors used the ionophore ETH2120 in this study), it is possible to switch off the energy metabolism specifically. Cells suspended in imidazole buffer (50 mM imidazole, 20 mM MgSO4, 20 mM KCl, 4 mM DTE, pH 7.0) containing 20 mM NaCl converted H2+CO2 to acetate, and only small amounts of formate were produced from a gas phase of 0.8×10^5 Pa II2 and 0.2×10^5 CO2. […] In agreement with the results obtained from the purified enzyme, foimate production was also observed when hydrogen was absent and the electron donor was CO but with lower rates compared to hydrogen as electron donor.

`O=C(COc1ccccc1OCC(=O)N(C1CCCCC1)C1CCCCC1)N(C1CCCCC1)C1CCCCC1` [ETH2120, N,N,N′,N′-Tetracyclohexyl-1,2-phenylenedioxydiacetamide] was tested, and the “production of formate (concentration reached)” value (A. woodii cell suspension (1 mg/ml), gas phase 0.8×10^5 Pa H2 and 0.2×10^5 Pa CO2) was “up to 8 mM”, the acetate production (A. woodii cell suspension (1 mg/ml), gas phase 0.8×10^5 Pa H2 and 0.2×10^5 Pa CO2, imidazole buffer with 20 mM NaCl) was “stopped; also recorded: ceased almost completely” and the “initial rate of formate production” value (A. woodii cells in imidazole buffer with 20 mM NaCl, gas phase 0.8×10^5 Pa H2 and 0.2×10^5 CO2) was 2 μmol/min×mg cell protein.
